ChEMBL document CHEMBL5252509, “In depth analysis of kinase cross screening data to identify chemical starting points for inhibition of the Nek family of kinases” (Medchemcomm, 2018)

The compounds below were run against T1, Serine/threonine-protein kinase Nek5 (Homo sapiens) (UniProt Q6P3R8) (assay: Inhibition of NEK5 (unknown origin) at 10 uM relative to control).
T1 sequence (whole entry): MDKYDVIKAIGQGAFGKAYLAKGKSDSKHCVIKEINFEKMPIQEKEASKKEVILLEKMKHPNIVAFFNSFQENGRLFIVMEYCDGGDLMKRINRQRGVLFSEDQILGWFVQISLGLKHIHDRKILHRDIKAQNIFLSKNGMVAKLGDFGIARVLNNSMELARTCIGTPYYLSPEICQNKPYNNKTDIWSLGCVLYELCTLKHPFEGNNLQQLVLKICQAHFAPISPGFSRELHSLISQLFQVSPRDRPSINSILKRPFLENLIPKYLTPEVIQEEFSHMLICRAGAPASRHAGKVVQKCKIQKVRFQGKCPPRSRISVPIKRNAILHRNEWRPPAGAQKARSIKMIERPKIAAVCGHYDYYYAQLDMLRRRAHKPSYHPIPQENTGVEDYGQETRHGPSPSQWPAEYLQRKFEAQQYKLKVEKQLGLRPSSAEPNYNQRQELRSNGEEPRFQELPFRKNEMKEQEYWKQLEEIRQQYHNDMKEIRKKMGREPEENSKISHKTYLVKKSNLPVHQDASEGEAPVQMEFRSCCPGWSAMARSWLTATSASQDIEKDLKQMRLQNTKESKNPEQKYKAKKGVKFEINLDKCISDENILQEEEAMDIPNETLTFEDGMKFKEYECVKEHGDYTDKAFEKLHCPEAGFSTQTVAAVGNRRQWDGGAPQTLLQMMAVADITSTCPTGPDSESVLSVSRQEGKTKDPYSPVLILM

SMILES	% control [%]
Fc1cc(-c2cc[nH]/c(=N/c3ccc(-n4cnc(N5CCOCC5)n4)cc3)n2)cc(N2CCOCC2)c1	1.4
CN(C)C/C=C/C(=O)Nc1cccc(C(=O)Nc2ccc(Nc3nccc(-c4c(-c5ccccc5)nn5ccccc45)n3)cc2)c1	98
CN(C)C/C=C/C(=O)Nc1cccc(C(=O)Nc2ccc(Nc3nccc(/C(C#N)=C4\Nc5ccccc5S4)n3)cc2)c1	100
Cc1cc(NC(=O)c2cccc(NC(=O)/C=C/CN(C)C)c2)ccc1Nc1nccc(-c2cccnc2)n1	92

Next, values leading:

% control [%]	SMILES
7.8	CN(C)C/C=C/C(=O)Nc1cccc(C(=O)Nc2ccc(Nc3nccc(-c4cccnc4)n3)cc2)c1
51	Cc1ccc(NC(=O)c2ccc(NC(=O)/C=C/CN(C)C)cc2)cc1Nc1nccc(-c2cccnc2)n1
100	O=C1NC(=O)/C(=C/c2ccc3nccc(-c4ccncc4)c3c2)S1
2.2	CN(C)C/C=C/C(=O)Nc1ccc(C(=O)Nc2cccc(Nc3nccc(-c4cccnc4)n3)c2)cc1

What follows are compounds tested against Serine/threonine-protein kinase Nek5 (Homo sapiens, UniProt Q6P3R8) (assay: Inhibition of NEK5 (unknown origin) assessed as dissociation constant).

Kd [nM]	SMILES
730	COc1cc(Nc2ncc3c(C)nc(-c4cc5ccccc5[nH]4)n3n2)cc(OC)c1OC

These compounds were tested against Serine/threonine-protein kinase Nek2 (Homo sapiens, UniProt P51955) (assay: Inhibition of NEK2 (unknown origin) assessed as dissociation constant).
Sequence of Serine/threonine-protein kinase Nek2 (P51955 whole entry): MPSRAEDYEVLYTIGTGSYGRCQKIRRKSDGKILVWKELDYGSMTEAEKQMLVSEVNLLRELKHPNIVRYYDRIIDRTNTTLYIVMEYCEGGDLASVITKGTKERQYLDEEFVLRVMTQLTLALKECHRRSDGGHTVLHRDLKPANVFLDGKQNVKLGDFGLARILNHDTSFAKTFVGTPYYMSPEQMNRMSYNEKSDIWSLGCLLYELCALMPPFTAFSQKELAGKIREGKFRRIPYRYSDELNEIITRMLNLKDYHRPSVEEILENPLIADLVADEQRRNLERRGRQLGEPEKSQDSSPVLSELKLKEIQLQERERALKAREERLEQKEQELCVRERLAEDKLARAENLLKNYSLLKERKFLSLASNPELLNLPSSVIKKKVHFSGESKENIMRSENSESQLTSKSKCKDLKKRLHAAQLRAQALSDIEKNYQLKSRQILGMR

SMILES	Kd [nM]
COc1cccc(C2=C(Nc3ccc(Cl)c(C(=O)O)c3)C(=O)NC2=O)c1	460

The compounds below were run against Mitogen-activated protein kinase 8 (Homo sapiens, UniProt P45983) (assay: Inhibition of JNK1 (unknown origin)).
Sequence of Mitogen-activated protein kinase 8 (P45983 whole entry): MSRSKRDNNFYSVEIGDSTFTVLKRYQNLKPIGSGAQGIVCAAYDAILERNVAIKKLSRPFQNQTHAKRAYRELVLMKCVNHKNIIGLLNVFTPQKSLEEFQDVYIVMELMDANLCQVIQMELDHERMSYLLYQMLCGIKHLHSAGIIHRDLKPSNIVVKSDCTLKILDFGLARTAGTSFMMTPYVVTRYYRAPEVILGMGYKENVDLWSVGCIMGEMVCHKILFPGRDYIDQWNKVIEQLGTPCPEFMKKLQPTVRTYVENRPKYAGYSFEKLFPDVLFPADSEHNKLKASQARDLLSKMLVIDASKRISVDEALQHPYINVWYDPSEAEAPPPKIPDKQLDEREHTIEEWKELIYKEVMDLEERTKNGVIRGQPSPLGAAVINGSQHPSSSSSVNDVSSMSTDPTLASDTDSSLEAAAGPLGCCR

IC50 [nM]	SMILES
41	CN(C)C/C=C/C(=O)Nc1cccc(C(=O)Nc2ccc(Nc3nccc(-c4cccnc4)n3)cc2)c1

These compounds were tested against T2, Eukaryotic translation initiation factor 2-alpha kinase 3 (Homo sapiens, UniProt Q9NZJ5) (assay: Inhibition of PERK (unknown origin)).
T2 sequence (Q9NZJ5 whole entry): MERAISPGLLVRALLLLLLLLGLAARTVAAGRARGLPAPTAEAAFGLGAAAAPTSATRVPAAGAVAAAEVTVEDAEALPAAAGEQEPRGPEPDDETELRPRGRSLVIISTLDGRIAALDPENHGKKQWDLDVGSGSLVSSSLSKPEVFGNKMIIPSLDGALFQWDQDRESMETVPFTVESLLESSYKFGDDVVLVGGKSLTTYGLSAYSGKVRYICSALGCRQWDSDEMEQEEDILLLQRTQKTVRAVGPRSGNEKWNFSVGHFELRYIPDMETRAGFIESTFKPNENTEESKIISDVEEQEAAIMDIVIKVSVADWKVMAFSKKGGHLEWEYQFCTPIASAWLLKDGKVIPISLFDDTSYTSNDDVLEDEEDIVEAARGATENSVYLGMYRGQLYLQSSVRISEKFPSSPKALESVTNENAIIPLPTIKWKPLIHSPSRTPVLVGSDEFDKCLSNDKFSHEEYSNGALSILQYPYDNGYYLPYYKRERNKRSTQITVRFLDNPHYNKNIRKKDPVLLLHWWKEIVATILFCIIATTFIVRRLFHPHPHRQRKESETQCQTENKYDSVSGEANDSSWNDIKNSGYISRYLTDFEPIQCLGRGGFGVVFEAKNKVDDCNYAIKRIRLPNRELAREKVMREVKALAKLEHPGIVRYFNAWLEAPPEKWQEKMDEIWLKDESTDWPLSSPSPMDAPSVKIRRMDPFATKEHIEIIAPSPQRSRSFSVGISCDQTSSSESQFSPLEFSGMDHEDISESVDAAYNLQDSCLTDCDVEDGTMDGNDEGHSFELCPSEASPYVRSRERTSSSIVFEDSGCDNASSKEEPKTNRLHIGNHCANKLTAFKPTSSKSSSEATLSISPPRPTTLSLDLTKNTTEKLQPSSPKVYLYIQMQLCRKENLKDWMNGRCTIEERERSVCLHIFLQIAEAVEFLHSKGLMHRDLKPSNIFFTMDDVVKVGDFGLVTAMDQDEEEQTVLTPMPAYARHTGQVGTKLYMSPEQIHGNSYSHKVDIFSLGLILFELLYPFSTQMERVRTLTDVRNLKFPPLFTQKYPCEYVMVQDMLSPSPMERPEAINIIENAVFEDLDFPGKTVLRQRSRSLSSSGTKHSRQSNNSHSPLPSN

IC50 [nM]	SMILES
< 15	Nc1ncc(-c2cn[nH]c2)c2scc(-c3ccc4c(c3)CCN4C(=O)Cc3ccccc3)c12
< 15	Cn1cc(-c2cnc(N)c3c(-c4ccc5c(c4)CCN5C(=O)Cc4ccccc4)csc23)cn1
< 15	Nc1nccc2scc(-c3ccc4c(c3)CCN4C(=O)Cc3cc(F)ccc3F)c12
< 15	Nc1nccc2scc(-c3ccc4c(c3)CCN4C(=O)Cc3ccccc3)c12

SMILES	IC50 [nM]
Cc1ccc(CC(=O)N2CCc3cc(-c4cn(C)c5ncnc(N)c45)ccc32)cc1	17
